The text below walks through data of PMC8145572 (Viruses, 2021).

“Also recorded” adds a separate entry of the source. Like-named read-outs stand apart in the source and are kept apart here.

The subject of data set [1] is Dengue virus serotype 2 (DENV2), strain New Guinea C. As to the kind of experiment: Antiviral evaluation. As to conditions: for EC50: MOI 0.01, AUC of viral burden over 3 days. The class given is cell-based.
The test system is the same in data set [2]. Put plainly: Antiviral evaluation. Format: cell-based. Particulars: SK-N-MC cells; for EC50: MOI 0.1, AUC of viral burden over 4 days.
The test system is the same in data set [3]. Put plainly: Antiviral evaluation. The class given is cell-based. Particulars: HFF-1 cells; for EC50: MOI 0.1, AUC of viral burden over 2 days; for viral burden in all treatment arms: all concentrations.
Data set [4] relates to DENV-infected HUH-7 cells. As to the kind of experiment: WST-1 cell viability assay, DENV-infected HUH-7 cells. The class given is cell-based, human. As to conditions: MOI 0.01, 3 days. (Formazan colour is commonly taken as a measure of viable cells.)
Data set [5] has as its system DENV-infected SK-N-MC cells. As to the kind of experiment: WST-1 cell viability assay, DENV-infected SK-N-MC cells. Format: cell-based, human. Particulars: MOI 0.1, 3 days.
Data set [6] deals with DENV-infected HFF-1 cells. As to the kind of experiment: WST-1 cell viability assay, DENV-infected HFF-1 cells. Format: cell-based, human. As to conditions: MOI 1, 3 days.
Data set [7] can be described thus: WST-1 cell proliferation assay, uninfected HUH-7 cells. As to conditions: human.
Data set [8] relates to HUH-7 cells. The data set is described as above. As to conditions: uninfected HUH-7 cells; for cytotoxicity in uninfected cells: evaluated concentrations; for CC50: 72 h.
Data set [9] is described as follows: WST-1 cell proliferation assay, uninfected HFF-1 cells. Particulars: human.
For data set [10], the system named is HFF-1 cells. The description is as above. Particulars: uninfected HFF-1 cells; for cytotoxicity in uninfected cells: evaluated concentrations; for CC50: 72 h.
Data set [11] in a line: WST-1 cell proliferation assay, uninfected SK-N-MC cells. Particulars: human.
Data set [12] deals with SK-N-MC cells. Described as above. As to conditions: uninfected SK-N-MC cells; for cytotoxicity in uninfected cells: evaluated concentrations; for CC50: 72 h.
In data set [13] the test system is Dengue virus serotype 2 (DENV2), strain New Guinea C. Put plainly: Combination drug assay UV-4B and IFN, DENV-infected HUH-7 cells, plaque assay. The class given is cell-based. As to conditions: day 2, 25 µM.
For data set [14] the test system is unchanged. As to the kind of experiment: Combination drug assay UV-4B and IFN, DENV-infected SK-N-MC cells, plaque assay. The class given is cell-based. As to conditions: 400 µM.
The conditions of data set [15]: Phase I study, one-time dose of 1000 mg; cited from earlier work.

In general, EC50 refers to the concentration that produces a half-maximal response. As for `NC(=O)c1nc(F)c[nH]c1=O` [FAV, favipiravir], the EC50 in [1] (Dengue virus, DENV2, Huh-7, 72 h, HUH-7 cells) was 147 µM; in data set [1] (HUH-7 cells, read-out: EC50) it was 149 µM; in data set [2] (Dengue virus, DENV2, 96 h), 288 µM; in data set [3] (Dengue virus, DENV2, 48 h), more than 500 µM. The “decrease in titers relative to the control” value in data set [1] (HUH-7 cells, 250 µM) is recorded as “approximate tenfold decrease”. The “maximum reduction in viral titers” value in data set [1] (HUH-7 cells, highest concentration evaluated) came out at 1.2 log10 PFU/mL. In [2] (Day 2, 250 µM), the “lowering of viral titers” value was “approximately 0.6 log10 PFU/mL”. For the same molecule, the “total reduction of viral titers” value in data set [2] (Day 2, 500 µM) is reported as 1.3 log10 PFU/mL. For the same molecule, the “additional decrease of viral titers over 250 µM” value in data set [2] (Day 2, 500 µM versus 250 µM) worked out at 0.7 log10 PFU/mL. In addition, the “viral burden in all treatment arms” value in [3] is on record as “completely ineffective”. In addition, the “cell viability of infected cells” value in [4], in data set [5] and in data set [6] was “limited effect on cell health” throughout. Also, the CC50 at 72 h in data set [7], in data set [9] and in data set [11] was more than 500 µM throughout. The “cytotoxicity in uninfected cells” value in data set [8], in [10] and in [12] was “no cytotoxicity” each time.
For `CC(C)OC(=O)[C@H](C)N[P@](=O)(OC[C@H]1O[C@@H](n2ccc(=O)[nH]c2=O)[C@](C)(F)[C@@H]1O)Oc1ccccc1` [SOF, sofosbuvir], the half-maximal effective concentration (EC50) in data set [1] (Dengue virus, DENV2, 72 h, HUH-7 cells, read-out: EC50) was 6.96 µM; in [2] (Dengue virus, DENV2, 96 h), more than 10 µM; in [3] (Dengue virus, DENV2, 48 h) it was more than 10 µM. In addition, the “viral titers” value in data set [1] (HUH-7 cells, 10 µM) was “below the limit of detection”. The “reduction in viral burden” value in data set [1] (HUH-7 cells, 4 and 6 µM) is on record as approximately 100 fold. Besides, the “viral burden in all treatment arms” value in data set [2] (all concentrations) and in data set [3] was “comparable to the no treatment control” throughout. Further, the “cell viability of infected cells” value is listed as “yielded improvements in cell viability” in data set [4], “minimal changes in cell viability” in [5] and “did not change relative to the uninfected control” in data set [6]. For the same molecule, the CC50 at 72 h in data set [7], in data set [9] and in [11] was more than 10 µM throughout. The “cytotoxicity in uninfected cells” value in [8], in [10] and in data set [12] was “no cytotoxicity” each time.
By Cmax is commonly meant the maximum level reached in the sampled fluid or tissue. Turning to `COCCCCCCCCCN1C[C@H](O)[C@@H](O)[C@H](O)[C@H]1CO.Cl` [UV-4B], the EC50 in [1] (HUH-7 cells, read-out: EC50) turned out to be 23.8 µM; in data set [2] it was 49.4 µM; in data set [3] it was 37.4 µM. Moreover, the “decrease in viral titers” value in [2] (day 2, 25 µM) was 1.6 log10 PFU/mL; in [2] (day 2, 400 µM), 3.6 log10 PFU/mL. The “reduction of viral titers, monotherapy” value in [13] is 1.7 log10 PFU/mL. Moreover, in data set [14], the “decline in peak viral titers, monotherapy” value turned out to be 3.8 log10 PFU/mL. For the same molecule, the “cell viability of infected cells” value in data set [4] was “remained comparable to the infected control; also recorded: declines in cell viability observed at UV-4B concentrations of 100 and 400 µM”; in data set [5] it was “concentrations ≥ 25 µM caused dramatic increases in cell viability”; in data set [6], “moderate declines in viability observed at 100 and 400 µM”. The maximum concentration (Cmax) in [15] is approximately 40 µM. Further, the CC50 in data set [8] is 135 µM; in data set [10] it was more than 400 µM; in [12], more than 400 µM.
As for interferon-alpha [IFN], the “reduction of peak titers” value in data set [1] (HUH-7 cells, 100 IU/mL) was 2.4 log10 PFU/mL. The “effect on production of infectious virus” value in [1] (HUH-7 cells, 10,000 IU/mL) was “completely curbed the production of infectious virus”. Further, the “cell viability of infected cells” value in data set [4] is recorded as “concentrations ≥ 10 IU/mL markedly increased cell viability”; in [6], “Percent cell viability stayed constant”. Also, the CC50 is >10,000 IU/mL in [8], >10,000 IU/mL in [10] and 1074 IU/mL in data set [12].
